Measurements taken from US9492450B2, “Inhibition of dynamin related protein 1 to promote cell death” (University of Pittsburgh—of the Commonwealth System of …, priority 2011, dated 2016).

Tests used:
[1] = test system: Drp1 wild-type (WT) and knockout (KO) SV40-transformed MEF cells; experiment: Drp1 wild-type and knockout MEF cells: cleaved caspase-3, CyQuant, OCR; format: cell-based, mouse
Procedure: FIG. 21A-F. Mdivi-1 enhances cisplatin sensitivity through Drp1-independent mechanisms. (A) Confirmation of the depletion of Drp1 in Drp1 knockout SV40-transformed MEF cells by western blot. (B) Drp1 wild-type (Drp1+/+) and knockout (Drp1−/−) MEF cells were treated as indicated for 20 h, and the number of apoptotic cells was determined by antibody recognizing cleaved caspase-3. […] (C) Drp1 wild-type and knockout MEF cells were treated with mdivi-1 for 24 h, and the cell number were determined by CyQuant assay. (D) OCR was measured after 1 h treatment of Drp1 wild-type and knockout MEF cells with DMSO or mdivi-1. (E) The combination effect of cisplatin with four analogs of mdivi-1. […]
Cell proliferation was determined using a CyQUANT Direct Cell Proliferation Assay kit (Invitrogen), the activity of caspase-3/7 was measured using a Caspase-Glo 3/7 Assay Systems (Promega, Madison, Wis.), and the MTS colorimetric survival assay was performed using the CellTiter 96 AQueous One Solution Cell Proliferation Assay kit (Promega, Madison, Wis.), according to the manufacturer's instructions. The survival fractions were calculated after setting untreated control cells at 100%. […] The cytotoxic interactions between the two drugs was determined using the method of Chou and Talalay. The combination index (CI) was determined using a computer program CompuSyn. […]

[2] = Solubility of mdivi-1 with carrier compounds; format: physicochemical; conditions: 1 mM mdivi-1
H1299 cells = experiment: Mitochondrial function: ATP, OCR, ECAR, TMRM membrane potential; format: cell-based, human; conditions: 50 μM, 4 h
Procedure: FIG. 25A-I. Mdivi-1 causes mitochondrial dysfunction and its combination with cisplatin induces mitochondrial swelling that triggers Bax/Bak-independent MOMP. (A) MDA-MB-231 cells and H1299 cells were treated as indicated for 4 h and subjected to ATP determination. […] (B, C) OCR and ECAR were measured after 4 h treatment of H1299 cells with agents alone or the combination (C/M). (D) H1299 cells were treated as indicated for 4 h. Mitochondrial membrane potential was determined with TMRM. (E) Bax/Bak double knockout MEF cells were treated with DMSO or the combination, with or without the presence of 10 μM FCCP for 2 h. Mitochondrial membrane potential was measured as in D. (F) Bax/Bak double knockout MEF cells were treated as indicated for 2 h, ROS generation was determined with DCF-DA. (G) Bax/Bak double knockout MEF cells were pre-incubated with 5 μM MitoSox for 30 min, and then treated as indicated for 2 h followed by flow cytometry. […] Mitochondrial morphology was analyzed by confocal microscopy. […] Mitochondrial ultrastructure was analyzed by electron microscopy. […]
Total cellular ATP content was determined using a luminescent ATP detection kit, ATPlite (PerkinElmer Life Sciences, Boston, Mass.), according to the manufacturer's instruction. The luminescence intensity was measured using a microplate reader, Synergy 2 (BioTek instruments, Winooski, Vt.). […]

MDA-MB-231 cells [3] = experiment: DNA content flow cytometry (propidium iodide): G2/M arrest and aneuploidy; format: cell-based, human; conditions: mdivi-1 50 μM 24 and 48 h, siRNA 72 and 96 h
Procedure: Cell cycle distribution was determined by flow cytometric analysis of propidium iodide stained cells. The percentage of the cells containing a DNA content of 4N and a DNA content>4N are indicated. […] MDA-MB-231 cells were treated with either 5 μg/ml oligomycin, 5 μM FCCP, or 10 μg/ml antimycin A for 24 h. Cell cycle distribution was determined as described above.
Cell cycle distribution was determined by flow cytometric analysis of propidium iodide stained cells. The percentage of the cells containing a DNA content of 4N and >4N are indicated. Data presented in this figure are representative of three independent experiments.
For DNA content analysis, cells were trypsinized and fixed in 70% ice-cold ethanol overnight at 4° C. After fixation, the cells were washed with 1% BSA/PBS, and permeabilized using 0.25% triton-X 100 in 1% BSA/PBS. Cells were then incubated in PI solution (PBS containing 50 μg/ml of PI and 40 μg/ml of RNase A) for 30 min at room temperature.

MDA-MB-231 cells [4] = experiment: CyQUANT growth assay, continuous exposure; format: cell-based, human; conditions: various concentrations
Procedure: To test the effect of Drp1 inhibition on tumor cells, MDA-MB-231 cells were plated in black 96-well plates and treated with various concentrations of mdivi-1. Cell numbers were measured by CyQUANT assay every day.

## COc1cc(-n2c(=S)[nH]c3ccccc3c2=O)c(Cl)cc1Cl [mdivi-1]
[1]; 1 h treatment
  mitochondrial respiration (OCR) in Drp1 WT and KO cells: inhibition
[1]; 24 h
  cell proliferation (CyQuant) in Drp1 WT and KO cells: inhibition of cell proliferation
[2]; 40% 2-Hydroxypropyl-β-cyclodextrin/PBS
  solubility of mdivi-1: improve the solubility
[2]; human serum albumin as vehicle, 15% HSA in 0.85% sodium chloride
  solubility of mdivi-1: improve the solubility
H1299 cells
  extracellular acidification rate (ECAR): enhanced the extracellular acidification rate
  oxygen consumption rate (OCR) / mitochondrial respiration: suppressed mitochondrial respiration
MDA-MB-231 cells [3]
  G2/M cell cycle arrest and aneuploidy: induces G2/M cell cycle arrest and aneuploidy
MDA-MB-231 cells [3]; listed as Mdivi-1
  G2/M cell cycle arrest and aneuploidy: induced the similar G2/M cell cycle arrest and aneuploidy
MDA-MB-231 cells [4]
  growth of cells: inhibited the growth of MDA-MB-231 breast cancer cells in a dose-dependent manner
